{"source": "patent US12419900B2", "about": "“Induction of synthetic lethality with epigenetic therapy” (The Johns Hopkins University, priority 2017, dated 2025)", "key": {"[1]": {"tested_on": "DU145 prostate cancer cells", "experiment": "Alamar blue cell viability and growth, alisertib x decitabine dose matrix", "type": "cell-based", "description": "DU145 prostate cancer cells and A549 lung cancer cells were treated with varying concentrations (0 nM, 10 nM, 50 nM, and 100 nM) of alisertib in addition to varying concentrations of decitabine (0 nM, 50 nM, 100 nM, and 250 nM). Representative data are shown in FIGS. 2A and 2B, as well as the Tables below. […] In each panel, a dose response of each drug alone and in combination was used in Alamar blue cell viability assays. […] Formal synergy analyses were performed using the Bliss independence score (where values greater than zero indicate greater than additive effect). […] The graph of FIG. 2A is a growth curve of the DU145 prostate cancer cells for the agents alone (decitabine and alisertib separately), a vehicle control, and the agents in combination (decitabine and alisertib together). […] Likewise, the graph of FIG. 2B is a growth curve of the A549 lung cancer cells for the agents alone (decitabine and alisertib separately), a vehicle control, and the agents in combination (decitabine and alisertib together). […] The synergy analysis of the combination of decitabine and alisertib was evaluated in a series of 18 cancer cell lines (9 prostate, 1 ovarian, 1 lung, 2 colon, 2 central nervous system, and 3 breast cancer cell lines) and 2 non-cancer cell models."}, "A549 lung cancer cells": {"tested_on": "A549 lung cancer cells", "experiment": "Alamar blue cell viability and growth, alisertib x decitabine dose matrix", "type": "cell-based", "settings": "Homo sapiens, DAC 0 nM, read-out: Percent Growth Inhibition", "description": "DU145 prostate cancer cells and A549 lung cancer cells were treated with varying concentrations (0 nM, 10 nM, 50 nM, and 100 nM) of alisertib in addition to varying concentrations of decitabine (0 nM, 50 nM, 100 nM, and 250 nM). Representative data are shown in FIGS. 2A and 2B, as well as the Tables below. […] Formal synergy analyses were performed using the Bliss independence score (where values greater than zero indicate greater than additive effect). […] The graph of FIG. 2A is a growth curve of the DU145 prostate cancer cells for the agents alone (decitabine and alisertib separately), a vehicle control, and the agents in combination (decitabine and alisertib together). […] Likewise, the graph of FIG. 2B is a growth curve of the A549 lung cancer cells for the agents alone (decitabine and alisertib separately), a vehicle control, and the agents in combination (decitabine and alisertib together). […] The synergy analysis of the combination of decitabine and alisertib was evaluated in a series of 18 cancer cell lines (9 prostate, 1 ovarian, 1 lung, 2 colon, 2 central nervous system, and 3 breast cancer cell lines) and 2 non-cancer cell models."}, "primary hepatocytes": {"tested_on": "primary hepatocytes", "experiment": "Cell viability and growth, alisertib x decitabine dose matrix", "type": "cell-based", "settings": "Hepatocyte, DAC 0 nM, read-out: Percent Growth Inhibition", "description": "The synergy analysis of the combination of decitabine and alisertib was evaluated in a series of 18 cancer cell lines (9 prostate, 1 ovarian, 1 lung, 2 colon, 2 central nervous system, and 3 breast cancer cell lines) and 2 non-cancer cell models. A final cumulative Bliss synergy score was calculated based on the sum of the synergy values from each of the 16 combinations of 0 nM, 10 nM, 50 nM, and 100 nM of alsertib together with 0 nM, 50 nM, 100 nM, and 250 nM of decitabine."}, "DU145 xenograft tumor": {"tested_on": "DU145 xenograft tumor", "experiment": "In vivo xenograft study of DU145, decitabine and alisertib", "parameters": "species or system nude mice", "description": "Using in vivo xenograft studies of the DU145 prostate cancer cell line, the effect was explored of the treatment of two dose levels of alisertib alone or in combination with decitabine using two different treatment time schedules over a period of seven weeks. First, nude mice were inoculated with DU145 cells that were allowed to incubate for 10-12 days to establish xenograft tumor. The inoculated mice were then treated concomitantly with both a high dose and a low dose of alisertib and decitabine in the first two weeks or primed with decitabine alone for two weeks followed by alisertib alone in the first cycle. The dose of decitabine was held constant at 0.75 mg/kg and given with either low-dose (15 mg/kg) or high-dose (25 mg/kg) alisertib, as indicated in FIG. 4. The cumulative number of doses of decitabine and alisertib was the same in all combination treatment arms in both schedules."}, "[2]": {"experiment": "In vivo toxicity profile of treated mice", "settings": "FIGS. 7D and 7E", "source_text": "The toxicity profile of the treated mice was observed, and the animals were weighed over the course of the experiment."}, "[3]": {"tested_on": "residual xenograft tumors", "experiment": "KI-67 and Caspase 3A staining of residual xenograft tumors", "type": "in vivo, nude mice", "settings": "decitabine pre-treatment experiment", "source_text": "The proliferative index and apoptotic fraction in residual xenograft tumors from the decitabine pre-treatment experiment was then examined. Sample cells from each of the vehicle control, decitabine pre-treatment alone, alisertib alone, and decitabine pretreatment in combination with alisertib were stained with either KI-67 or Caspase 3A."}, "DNMT3B": {"tested_on": "DNMT3B", "experiment": "Western Blot in DU145 cells", "type": "cell-based", "settings": "100 nM decitabine, 100 nM alisertib", "description": "DNA methyltransferase enzymes comprise a family of enzymes including DNMT1, DNMT3A, and DNMT3B. […] In this study, Western Blot analyses for DNMT3B were performed on DU145 cell tissue sample treated with vehicle control; 100 nM alisertib alone; 100 nM decitabine alone; and 100 nM of decitabine in combination with 100 nM of alisertib."}, "DNMT1": {"tested_on": "DNMT1", "experiment": "Protein levels in DU145 cells (data not shown)", "type": "cell-based"}, "DNMT3A": {"tested_on": "DNMT3A", "experiment": "Protein levels in DU145 cells (data not shown)", "type": "cell-based"}, "Satellite 2 sequences": {"tested_on": "Satellite 2 sequences", "experiment": "Bisulfite genomic sequencing of repetitive elements", "type": "cell-based", "settings": "DU145; vehicle control 45.09%"}}, "data": [{"smiles": "COc1cc(Nc2ncc3c(n2)-c2ccc(Cl)cc2C(c2c(F)cccc2OC)=NC3)ccc1C(=O)O", "note": "[alisertib]", "values": [{"measurement": "growth inhibition of DU-145 cells in combination with decitabine", "setting": "[1]; Aurora kinase inhibitor + decitabine", "value": "synergistic growth inhibition"}, {"measurement": "inhibition at 0.01 µM", "setting": "[1]; Homo sapiens, DU-145, DU145, DAC 0 nM, Alisertib 10 nM, read-out: Percent Growth Inhibition", "value": 0, "unit": "%"}, {"measurement": "inhibition at 0.05 µM", "setting": "[1]; Homo sapiens, DU-145, DU145, DAC 0 nM, Alisertib 50 nM, read-out: Percent Growth Inhibition", "value": 0, "unit": "%"}, {"measurement": "inhibition at 0.1 µM", "setting": "[1]; Homo sapiens, DU-145, DU145, DAC 0 nM, Alisertib 100 nM, read-out: Percent Growth Inhibition", "value": 2, "unit": "%"}, {"measurement": "inhibition at 0.01 µM", "setting": "A549 lung cancer cells; Alisertib 10 nM", "value": 0, "unit": "%"}, {"measurement": "inhibition at 0.05 µM", "setting": "A549 lung cancer cells; Alisertib 50 nM", "value": 0, "unit": "%"}, {"measurement": "inhibition at 0.1 µM", "setting": "A549 lung cancer cells; Alisertib 100 nM", "value": 1, "unit": "%"}, {"measurement": "inhibition at 0.01 µM", "setting": "primary hepatocytes; Alisertib 10 nM", "value": 10, "unit": "%"}, {"measurement": "inhibition at 0.05 µM", "setting": "primary hepatocytes; Alisertib 50 nM", "value": 21, "unit": "%"}, {"measurement": "inhibition at 0.1 µM", "setting": "primary hepatocytes; Alisertib 100 nM", "value": 15, "unit": "%"}, {"measurement": "Fold Change in Tumor Size, Mean", "setting": "DU145 xenograft tumor; Alisertib high dose 25 mg/kg alone, week 0", "value": 1}, {"measurement": "Fold Change in Tumor Size, Mean", "setting": "DU145 xenograft tumor; Alisertib high dose 25 mg/kg alone, week 1", "value": 1.69}, {"measurement": "Fold Change in Tumor Size, Mean", "setting": "DU145 xenograft tumor; Alisertib high dose 25 mg/kg alone, week 2", "value": 2.35}, {"measurement": "Fold Change in Tumor Size, Mean", "setting": "DU145 xenograft tumor; Alisertib high dose 25 mg/kg alone, week 3", "value": 3.16}, {"measurement": "Fold Change in Tumor Size, Mean", "setting": "DU145 xenograft tumor; Alisertib high dose 25 mg/kg alone, week 4", "value": 5.08}, {"measurement": "Fold Change in Tumor Size, Mean", "setting": "DU145 xenograft tumor; Alisertib high dose 25 mg/kg alone, week 5", "value": 6.47}, {"measurement": "Fold Change in Tumor Size, Mean", "setting": "DU145 xenograft tumor; Alisertib high dose 25 mg/kg alone, week 6", "value": 8.46}, {"measurement": "Fold Change in Tumor Size, Mean", "setting": "DU145 xenograft tumor; Alisertib high dose 25 mg/kg alone, week 7", "value": 9.98}, {"measurement": "Fold Change in Tumor Size, Mean", "setting": "DU145 xenograft tumor; Alisertib low dose 15 mg/kg alone, week 0", "value": 1}, {"measurement": "Fold Change in Tumor Size, Mean", "setting": "DU145 xenograft tumor; Alisertib low dose 15 mg/kg alone, week 1", "value": 1.31}, {"measurement": "Fold Change in Tumor Size, Mean", "setting": "DU145 xenograft tumor; Alisertib low dose 15 mg/kg alone, week 2", "value": 2.25}, {"measurement": "Fold Change in Tumor Size, Mean", "setting": "DU145 xenograft tumor; Alisertib low dose 15 mg/kg alone, week 3", "value": 2.96}, {"measurement": "Fold Change in Tumor Size, Mean", "setting": "DU145 xenograft tumor; Alisertib low dose 15 mg/kg alone, week 4", "value": 4.33}, {"measurement": "Fold Change in Tumor Size, Mean", "setting": "DU145 xenograft tumor; Alisertib low dose 15 mg/kg alone, week 5", "value": 5.12}, {"measurement": "Fold Change in Tumor Size, Mean", "setting": "DU145 xenograft tumor; Alisertib low dose 15 mg/kg alone, week 6", "value": 6.02}, {"measurement": "Fold Change in Tumor Size, Mean", "setting": "DU145 xenograft tumor; Alisertib low dose 15 mg/kg alone, week 7", "value": 7.54}, {"measurement": "tumor growth (FIG. 5A)", "setting": "DU145 xenograft tumor; decitabine alone, alisertib high and low dose alone, combinations concurrent or primed, low and high dose alisertib", "value": "continued to grow at a significant rate"}, {"measurement": "xenograft tissue growth or survival compared to the vehicle control", "setting": "DU145 xenograft tumor; single agent therapy at the doses tested (decitabine 0.75 mg/kg; alisertib 15 or 25 mg/kg)", "value": "did not significantly alter"}, {"measurement": "AST and ALT (liver function)", "setting": "[2]", "value": "elevated"}, {"measurement": "Caspase 3A staining (apoptosis)", "setting": "[3]", "value": "almost no alteration"}, {"measurement": "KI-67 staining (cell proliferation)", "setting": "[3]", "value": "almost no alteration"}, {"measurement": "DNMT3B levels", "setting": "DNMT3B", "value": "significantly reduce"}, {"measurement": "DNMT1 levels", "setting": "DNMT1", "value": "did not significantly affect"}, {"measurement": "DNMT3A levels", "setting": "DNMT3A", "value": "did not significantly affect"}, {"measurement": "percent of CpG Satellite 2 methylation", "setting": "Satellite 2 sequences", "value": 40.6, "unit": "%"}]}]}
